Laboratory results reported in patent EP2563337B1, “CARRIER AND TARGETING SYSTEM COMPRISING A SIOSOMAL COMPOSITION FOR INTRACELLULAR DELIVERY AND TARGETING OF ACTIVE SUBSTANCE” (Salama, Zoser B., priority 2010, dated 2011).
Like-named read-outs stand apart in the source and are kept apart here.

Key:
[1] = Encapsulation efficiency of doxorubicin hydrochloride in siosomes (absorbance at 480 nm after gel filtration); assay type: physicochemical; conditions: Example 18: doxorubicin-siosomes prepared from the single organosilicon compound
Procedure: A doxorubicin hydrochloride solution at 10 mg/ml was prepared using physiological saline. The predetermined amount of the doxorubicin hydrochloride solution was added to the sugar siosome dispersion using the cationic organosilicon compounds such as 1.2-(Dimethyldecylsilyl)ethyl-beta-D-glucosamin, 2.2-(Dimethyloctylsilylcholin)ethyl-beta-D-glucopyranosid and/or 1.2-(DiN,N,N,trimethylammoniadecylsilyl)ethyl-beta-D-glucopyranosid and the mixture was adjusted to pH 7.4, using 1 N NaOH or saturated sodium hydrogencarbonate and the mixture was stirred at 65°C for 30 minutes the thereby introduce the doxorubicin hydrochloride in the siosomes.
After doxorubicin hydrochloride introduction, the sample was cooled in an ice bath. Gel filtration was conducted using a column (Sepharose 4, fast flow, having a diameter of 2.8 cm and a length of 20 cm, fully substituted with 10% sucrose (pH 6.5)) to remove the doxorubicin hydrochloride that had not been introduced in the siosomes.
The amount of the sugar silanes in the siosomes, the amounts of the doxorubicin hydrochloride encapsulated in the siosomes and the siosomes themselves were measured by the same methods as in the above examples.
Concentration of the doxorubicin hydrochloride encapsulated in the siosomes was determined by measuring absorbance at 480 nm, using a spectrophotometer for the solution prepared by adding 2 ml of methanol to 40 µl of the doxorubicin siosomes. An alternative HPLC-based assay has also been used for the quantification of the doxorubicin in the formulations.
The above procedures described in example 16 were employed to prepare the carrier siosomes systems in this example. According to these methods of preparation, a dispersion of each of the following organo-silicon compounds were prepared, using doxorubicin hydrochloride solutions at […]. • Sil 8.1: Decyldimethylsilyl-α-D-galactopyranosid • Sil 9.1: Dodecyldimethylsilyl-α-D-glucopyranosid • SIL 15: 1-O-Dioctadecylsilyl-di(2,3,4,6-O-tetracetyl-β-D-galactopyranosid) • SIL 14: 1-o-Dioctadecylsilyl-di(2,3,4,6-O-tetracetyl-β-D-glucopyranosid)1-o- • SIL17: Didodecylsilyl-di(2,3,4,6-O-tetracetyl-β-D-glucopyranosid) • SIL18: Tridodecylsilyl-(2,3,4,6-O-tetracetyl-β-D-glucopyranosid) • Sil22.1 Di(octadecanoyloxy)dimethylsilan
The following parameters have been determined: 1 Physico chemical properties 2 Encapsulated efficiency of doxorubicin 3 Stability 4 Particle size distribution prior to lyophilisation and after dehydration using sterile water for injection 5 Release profile

[2] = Intracellular distribution of Cis-Oxoplatin within the rat liver, total platinum in liver homogenate and fractions; assay type: in vivo; conditions: rats, 1.5 mg Cis-Oxoplatin encapsulated in Siosomes of the compound, intravenous, 3 hours after administration
From the text: • 1. The objective of the study to assess the intracellular distribution of Cis-Oxoplatin (as model drug molecule) in rat liver using Cis-Oxoplatin encapsulated in Siosomes®, using the following organosilicon compounds: • a. Sugar Organosilicon Compound: Didodecylsilyi-di(2,3,4,6-O-tetraacetyl-β-D-glucopyranosid (SIL 17) • b. Cationic Sugar Organosilicon Compound: 2.2-(Dimethyloctylsilylcholin)ethyl- β-D-glucopyranosid (SIL62) • c. Anionic Sugar Organosilicon Compound: 2-(Dimethyidecylsilyl)ethyl-β-D-glucopyranosidsulfate (SIL56) • d. Zwitterionic Sugar Organosilicon Compound: 2-(N,N,N, trimethylammonianonaylsilyl)ethyl- P-D-glucopyranosidsulfate (SIL66) • e. PEGylated Organosilicon Compound: 2-(Dimethyloctylsilylcholin)ethyl-β-D-PEG-acetylglucosaminether (SIL54) • 2. The different Siosomes® using each of the above mentioned organosilicon compounds have been prepared according to the procedures of this invention. The particle size range of the Siosomes® was 120-300 nm.
The Platinum-Siosomes®-Complex formulations were supplied in vials containing 10 mg each. Before administration, the contents of each vial was dissolved using 2 ml of sterile distilled water.
Each rat was administered with 1.5 mg investigative formulation, therefore each rat was administered 300 µl.
At the start of the study, all animals in all treatment groups received 1.5 mg of investigative drug. All drugs given via intravenous route were treated in an ultrasonic bath for five minutes at room temperature.
Tissue fractionation was performed by differential centrifugation yielding 5 fractions: • a. Mitochondrial fraction • b. Cytosol • c. Lysosomes • d. Microsomal fraction • e. Membrane fraction
Animals have been sacrificed 3 hours after the administration of the Siosomes® formulations. The livers have been removed from all animals. The liver homogenate has been prepared from the liver of each treatment group and used for the fractionation of the liver cells.
Each of the animals in the treatment control group for the determination of total platinum in the liver homogenate have been administered the Drug-Siosomes® formulations in the same way/procedures as the treatment groups.
Total platinum concentrations have been determined in each fraction for the treated and untreated animal groups. • Average animal weight = 211.64 ± 21.23 g • Average liver weight = 10.40 ± 1.27 g • Average concentration of total platinum in the liver homogenate of the treatment groups (control) • Group 1: Sugar Organosilicon Compound = 2.34 ± 0.82 µg/g • Group 2: Cationic Sugar Organosilicon Compound = 4.40 ± 1.30 µg/g • Group 3: Anionic Sugar Organosilicon Compound = 2.20 ± 0.90 µg/g • Group 4: Zwitterionic Sugar Organosilicon Compound = 3.10 ± 0.70 µg/g • Group 5: PEGylated Organosilicon Compound = 2.90 ± 1.20 µg/g

[3] = assay type: physicochemical; conditions: unloaded Siosomes
Procedure: The following are the general procedures according to this invention for the preparation of the Siosomes® using ethanol injection method: • An ethanol solution of the Sugar Silane was injected rapidly into an excess of de-ionized water through a syringe equipped with a fine needle. The force of injection is in many cases sufficient to achieve a good Siosomes® suspension. In some cases the Siosomes® suspension was sonicated during the injection and afterwards for additional 15-45 minutes. The ratio of injected ethanol to water is maintained in a way that the resulting suspension contains not more than 4-7.5% ethanol. The Siosomes® suspension was prepared with a Sugar Silane concentration of 0.5-2.5 mg/ml depending on the used Silane. With this concentration, the final Siosomes® suspension is ready for use for many applications and for the preparation of the lyophilised Siosomes® powder.
The unloaded Siosomes® prepared according to the procedures of this invention using ethanolic solution injection has been investigated for stability.
The following parameters have been considered: • The optimal particle size of the Siosomes® for the further application of the Siosomes® for the encapsulation of active, for screening and for the performance of in-vitro and in-vivo animal studies • The optimal manufacturing conditions to achieve the best particle size distribution for the required particle size (approximately 90 %) • The performance of the Stability testing for the unloaded Siosomes® using the particle size measurements and their distribution • The performance of the Stability testing of the prepared unloaded Siosomes® at 4°C, 25°C and 37°C and 42°C • Stability testing of the prepared encapsulated Siosomes® at: Acidic conditions, alkaline conditions, oxidative conditions and light
All measurements are performed with a Malvern Zetaziser. The Zetasizer was programmed to perform 3 x 15 measurements for each sample. For each temperature and reading point (for each temperature test series 12 sample measurements were performed) two samples has been tested.
The count rate is measured in Kcps (Kilo counts per second), and enables the samples quality and concentration to be checked.

[4] = Example 18: doxorubicin-siosomes prepared from the single organosilicon compound
Procedure: The siosome size was measured using Zetasizer (Malvern Instruments).
The obtained test samples were analyzed using a Zetasizer from Malvern to measure the particle size of the Siosomes® and its concentration (via determination of the count rate which related to the sample quality and concentration).
The Zetasizer from Malvern performs particle size measurements using a process called Dynamic Light Scattering (DLS). Dynamic Light Scattering (also known as PCS - Photon Correlation Spectroscopy) measures Brownian motion and relates this to the size of the particles. It does this by illuminating the particles with a laser and analyzing the intensity fluctuations in the scattered light. If the particles or molecules are illuminated with a laser, the intensity of the scattered light fluctuates at a rate that is dependent upon the size of the particles as smaller particles are "kicked" further by the solvent molecules and move more rapidly.

For `CCCCCCCCCCCC[Si](CCCCCCCCCCCC)(O[C@@H]1O[C@H](COC(C)=O)[C@@H](OC(C)=O)[C@H](OC(C)=O)[C@H]1OC(C)=O)O[C@@H]1O[C@H](COC(C)=O)[C@@H](OC(C)=O)[C@H](OC(C)=O)[C@H]1OC(C)=O` [SIL 17, Didoceclylsilyl-di(2,3,4,6-O-tetraacetyl-β-D-glucopyranosid)], the “Encapsulation efficiency (%)” value [1] was 80-85%, the “Average concentration of total platinum in the liver homogenate” value [2] was 2.34 ± 0.82 µg/g and the “stability of the aqueous solutions of the Siosomes suspensions” value ([3]; 4°C, 25°C, 37°C and 42°C) was “stable for several days”. The count rate ([3]; 42°C) was “drops a little bit after several days but not drastically”, the count rate ([3]; over several days) was “stable” and the “Particle size range of the Doxorubicin-siosomes (nm)” value [4] was 180-240 nm.
